Results: patent US9974305B2, “Fungicidal or bactericidal composition, and method for controlling diseases” (NISSAN CHEMICAL INDUSTRIES, LTD., priority 2014, dated 2018)

Legend:
[1] = test system: wheat powdery mildew (Blumeria graminis); experiment: Efficacy test on wheat powdery mildew, seed treatment (Test Example 10); type: in vivo; settings: wheat (Norin 61)
Procedure: An agent comprising the following compound listed in Table 2 (active ingredient A) and the compound listed in Table 11 (H35: active ingredient B) as active ingredients, was prepared in accordance with the above Formulation Example. This agent was diluted with water to a predetermined concentration to obtain a test solution. A predetermined amount of test solution was put in a glass bottle of 5 ml, and 0.5 g (approximately 15 grains) of wheat seeds (variety: Norin 61) were added, stirred and air-dried. In each pot with a diameter of 7 cm and having soil put therein, 3 grains were seeded and grown for 14 days. To the wheat seedlings grown to the 1-leaf stage, a spore suspension (100,000 cfu/ml) of wheat powdery mildew (Blumeria graminis) was spray-inoculated. After placing the pot in a glass greenhouse for 10 days, the ratio of the formed lesion area occupying the inoculated leaves was measured, and the preventive value was calculated in accordance with the following formula. Preventive value=[1−(treated plot lesion area ratio/untreated plot lesion area ratio)]×100
(§1) Further, from the preventive value at each agent concentration, synergy was calculated by using the Colby method (Colby S. R. 1976, Weeds 15, 20-22).

[2] = test system: cucumber gray mold fungus (Botrytis cinerea); experiment: Preventive test against gray mold on cucumber cotyledon leaves, spray treatment, preventive value and Colby expected value (Test Examples 1-4); type: in vivo; settings: single compound
Procedure: Using the following compound listed in Table 2 (the active ingredient A) and the compound listed in Table 5 through Table 15 (active ingredient B), an agent was prepared in accordance with the above Formulation Example. This agent was diluted with water to a predetermined concentration to obtain a test solution. Then, cucumber (variety: Sagami-hanjiro) was planted in a plastic pot of 90 cm^3, and in the cotyledon stage, 5 ml of the obtained test solution, was sprayed by a spray gun and air-dried. Thereafter, the treated leaf was cut off and placed in a plastic container which filled approximately 0.5 cm in depth water. A suspension of conidia of cucumber gray mold fungus (Botrytis cinerea) and a dissolved PDA culture medium were mixed at a ratio of 1:1 (mass ratio), and the mixture was dropped to inoculate the treated leaf with 30 μl. After the inoculation, the plastic container was sealed and left at 20° C. for 3 days, the ratio of the formed lesion occupying the inoculated leaf was measured, and the preventive value was calculated in accordance with the following calculation formula. Preventive value=[1−(treated plot lesion area ratio/untreated plot lesion area ratio)]×100
Further, from the preventive value at each agent concentration, synergy was calculated by using the Colby method (Colby S. R. 1976, Weeds 15, 20-22). The calculation method is as follows. E=X+Y−XY/100
X: preventive value of A agent at x concentration
Y: preventive value of B agent at y concentration
E: theoretical value expected by treatment of the mixture of A agent and B agent.
The obtained result is analyzed to be synergy if the observed value is larger than the expected value, to be antagonism if the expected value is larger than the observed value, and to be an additive effect if the observed value and the expected value are the same.
Using the following compound listed in Table 2 (active ingredient A) and the following compound listed in Table 5 through Table 15 (active ingredient B) as active ingredients, a preventive test against gray mold was conducted in accordance with the method described in Test Example 1.
Using the following compound listed in Table 2 (active ingredient A) and the following compound listed in Table 5 or Table 6 (active ingredient B) as active ingredients, a preventive test against gray mold was conducted in accordance with the method described in Test Example 1.
Using the following compound listed in Table 2 (active ingredient A) and the following compound listed in Table 6 through Table 16 (active ingredient B) as active ingredients, a preventive test against gray mold was conducted in accordance with the method described in Test Example 1.

[3] = test system: wheat glume blotch (Leptosphaeria nodorum); experiment: Efficacy test on wheat glume blotch, spray treatment and prevention test (Test Example 8); type: in vivo; settings: spray, lesion area ratio
Procedure: An agent comprising the following compound listed in Table 2 (active ingredient A) and the following compound listed in Table 6, Table 11 or Table 15 (active ingredient B) as active ingredients, was prepared in accordance with the above Formulation Example. This agent was diluted with water to a predetermined concentration to obtain a test solution. Then, to seedlings of wheat (variety: Haruyutaka) at the 1-leaf stage, seeded in a pot with a diameter of 7 cm, with 5 seeds per pot, and grown for 7 days, the test solution was applied by a spray gun in an amount of 5 ml per pot, for treatment. One day after the treatment, a spore suspension (1×100,000 cfu/ml) of wheat glume blotch (Leptosphaeria nodorum) was spray-inoculated, and the pot was placed in a moist chamber set in temperature of 20° C. and humidity more than 95% RH for 48 hours. After placing the pot in a glass greenhouse for 7 days, the ratio of the formed lesion area occupying the inoculated leaves was measured, and the preventive value was calculated in accordance with the following formula. Preventive value=[1−(treated plot lesion area ratio/untreated plot lesion area ratio)]×100
(§2) Further, from the preventive value for each agent concentration, synergy was calculated by using the Colby method (Colby S. R. 1976, Weeds 15, 20-22).

[4] = test system: cucumber powdery mildew (Sphaerotheca cucurbitae); experiment: Efficacy test on cucumber powdery mildew, irrigation treatment (Test Example 11); type: in vivo; settings: concentration 500 ppm, cucumber (Sagami-hanjiro)
Procedure: An agent comprising the following compound listed in Table 2 (active ingredient A) and the compound listed in Table 6 (C18: active ingredient B), was prepared in accordance with the above Formulation Example. This agent was diluted with water to a predetermined concentration to obtain a test solution. 5 ml of the test solution was irrigated by a pipette to the close-to-ground part of cucumber seedlings at the 1 leaf stage (variety: Sagami-hanjiro), grown in a styrol cup with a diameter of 10 cm, and next day, the seedlings were transplanted to the to 4 cun pots. Then, after cultivation for 7 days in a glass greenhouse, to the first true leaf of the cucumber, a spore suspension (100,000 cfu/ml) of cucumber powdery mildew (Sphaerotheca cucurbitae) was inoculated by spraying. After 10 days in a glass greenhouse, the ratio of the formed lesion area occupying the inoculated leaves was measured, and the preventive value was calculated in accordance with the following formula. Preventive value=[1−(treated plot lesion area ratio/untreated plot lesion area ratio)]×100
as §1

[5] = test system: rice sheath blight fungus (Rhizoctonia solani); experiment: Efficacy test on rice sheath blight, spray treatment and prevention test (Test Examples 5-6); type: in vivo; settings: single compound 250 ppm, lesion height
Procedure: An agent comprising the following compound listed in Table 2 (active ingredient A) and the compound listed in Table 6 (C17: active ingredient B) as active ingredients, was prepared in accordance with the above Formulation Example. The agent was diluted with water to a predetermined concentration to obtain a test solution. Then, in a plastic pot of 90 cm^3, rice (Nipponbare) was seeded by 5 grains in one place, and to the grown seedlings in 4 seedling phase, the test solution was applied by a spray gun in an amount of 5 ml per pot, for treatment.
One day after the treatment, 1 g of mycelium flora of rice sheath blight fungus (Rhizoctonia solani) cultured in bran medium, was put by […] to a close-to-ground part of seedlings, and the pot was placed in a moist chamber set in temperature of 25° C. and humidity more than 95% RH for eight days. The height of the lesions which appeared in the highest position from the close-to-ground part (lesion height) was investigated, and the preventive value was calculated in accordance with the following formula. Preventive value=[1−(treated plot lesion height/untreated plot lesion height)]×100
as §2
Using the following compound listed in Table 2 (active ingredient A) and the compound listed in Table 6 (C17: active ingredient B) as active ingredients, a preventive test on rice sheath blight was conducted in accordance with the above Test Example 5.

[6] = test system: cucumber downy mildew (Pseudoperenospora cubensis); experiment: Efficacy test on cucumber downy mildew, spray treatment and prevention test (Test Example 7); type: in vivo; settings: single compound 250 ppm; lesion area ratio
Procedure: An agent comprising the following compound listed in Table 2 (active ingredient A) and the compound listed in Table 6 (C40: active ingredient B) as active ingredients, was prepared in accordance with the above Formulation Example. This agent was diluted with water to a predetermined concentration to obtain a test solution. Then, to seedlings of cucumber (variety: Sagami-hanjiro) at 1.5-leaf stage grown in a pot with a diameter of 7 cm, the test solution was applied by a spray gun in an amount of 10 ml per pot, for treatment. One day after the treatment, a spore suspension (2×100,000 cfu/ml) of cucumber downy mildew (Pseudoperenospora cubensis), was spray-inoculated, and the pot was placed in a moist chamber set in temperature of 20° C. and humidity more than 95% RH for 24 hours. After placing the pot in a glass greenhouse for 6 days, the ratio of the formed lesion area occupying the inoculated leaves was measured, and the preventive value was calculated in accordance with the following formula. Preventive value=[1−(treated plot lesion area ratio/untreated plot lesion area ratio)]×100
as §2

[7] = processing amount 5 mg/1 g seed
[8] = processing amount 10 mg/1 g seed

melting point [°C] | SMILES | Preventive value [1, 7] | Preventive value [1, 8] | Preventive value ([2]; Test Example 1, 3 ppm spray) | Preventive value ([2]; Test Example 3, 3 ppm spray) | Preventive value ([2]; Test Example 4, 3 ppm spray) | Preventive value ([3]; single compound 3 ppm) | Preventive value ([3]; single compound 10 ppm) | Preventive value [4] | Preventive value ([5]; Test Example 6) | Preventive value [6] | Preventive value ([2]; Test Example 2, 3 ppm spray) | Preventive value ([5]; Test Example 5) | Preventive value ([2]; Test Example 2, 1 ppm spray) | Preventive value ([2]; Test Example 3, 1 ppm spray) | Preventive value ([2]; Test Example 4, 1 ppm spray)
– | CON=C(CNC(=O)c1cccnc1Cl)c1ncc(C#CC(C)(C)C)cc1Cl [compound 35] | 20 | 61 | 88 | 90 | 88 | 50 | 70 | 30 | 5 | 0 | – | – | – | – | –
– | O=C(NCC(=NOCC(F)(F)F)c1ncc(Cl)cc1Cl)c1ccccc1C(F)(F)F [compound 33] | 20 | 61 | – | 45 | 50 | 20 | 45 | 15 | 4 | 0 | 45 | – | – | – | –
– | CON=C(CNC(=O)c1ccccc1C(F)(F)F)c1ncc(C#CC2CC2)cc1Cl [compound 36] | 99 | 100 | 75 | 80 | 80 | 55 | 70 | 35 | – | 0 | – | 0 | – | – | –
74 to 76 | CO/N=C(/CNC(=O)c1ccccc1C(F)(F)F)c1ncc(Cl)c(OC)c1Cl [Compound No. 8, (Z)—N-[2-[3,5-dichloro-4-(methoxy)pyridin-2-yl]-2-(methoxyimino)ethyl]-2-(trifluoromethyl)benzamide] | – | – | – | – | – | – | – | – | – | – | – | – | – | – | –
– | CCC(C)ON=C(CNC(=O)c1cn(C)nc1C(F)F)c1ncc(C#CC2CC2)cc1Cl (mixture of isomers) [Compound No. 27] | 85 | 90 | – | 55 | 45 | 75 | 85 | 60 | 8 | 0 | 50 | – | – | – | –
– | CC#Cc1cnc(C(CNC(=O)c2cn(C)nc2C(F)F)=NOC(C)(C)C)c(Cl)c1 [compound 34] | 20 | 85 | – | – | – | 80 | 85 | 60 | 5 | 5 | – | – | 63 | 70 | 50
– | CC#Cc1cnc(C(CNC(=O)c2ccccc2C(F)(F)F)=NOC(C)C)c(Cl)c1 [compound 18] | 62 | 98 | 88 | 85 | 75 | 50 | 65 | 35 | – | 0 | – | 8 | – | – | –
